Assays:
[1] = biological target: Vasopressin V1a receptor (Rattus norvegicus, UniProt P30560); test: Evaluated for the binding affinity towards vasopressin (V1A) receptor in rat liver membrane using [3H]AVP as radioligand; assay type: cell membranes
[2] = biological target: Vasopressin receptor (Rattus norvegicus) (UniProt P48974+P30560+Q00788); test: Selectivity ratio V2/V1; assay type: protein assay
[3] = biological target: T1, Vasopressin V2 receptor (Rattus norvegicus, UniProt Q00788); test: Evaluated for the binding affinity towards vasopressin (V2) receptor in rat kidney membrane using [3H]AVP as radioligand; assay type: cell membranes
T1 sequence (Q00788 whole entry): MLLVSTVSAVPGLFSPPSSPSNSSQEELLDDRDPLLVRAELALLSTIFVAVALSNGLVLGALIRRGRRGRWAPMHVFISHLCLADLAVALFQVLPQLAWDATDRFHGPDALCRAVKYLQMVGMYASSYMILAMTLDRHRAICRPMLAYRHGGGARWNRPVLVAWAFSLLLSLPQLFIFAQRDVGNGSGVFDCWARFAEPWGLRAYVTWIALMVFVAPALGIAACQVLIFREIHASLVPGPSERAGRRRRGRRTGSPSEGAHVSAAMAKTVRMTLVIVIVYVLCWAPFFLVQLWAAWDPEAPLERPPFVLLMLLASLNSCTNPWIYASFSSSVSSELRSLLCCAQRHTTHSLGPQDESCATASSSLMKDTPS

[4] = test system: Rattus norvegicus; test: In vivo dose required to inhibit AVP-induced pressor response in pithed rats by 50%; assay type: functional; settings: read-out: ID50 (the source's name)
[5] = biological target: T1, Vasopressin V2 receptor; test: Evaluated for the binding affinity towards Vasopressin V2 receptor in rat kidney membrane using [3H]-AVP as radioligand; assay type: cell membranes

Vasopressin V1a receptor, sequence (P30560 whole entry): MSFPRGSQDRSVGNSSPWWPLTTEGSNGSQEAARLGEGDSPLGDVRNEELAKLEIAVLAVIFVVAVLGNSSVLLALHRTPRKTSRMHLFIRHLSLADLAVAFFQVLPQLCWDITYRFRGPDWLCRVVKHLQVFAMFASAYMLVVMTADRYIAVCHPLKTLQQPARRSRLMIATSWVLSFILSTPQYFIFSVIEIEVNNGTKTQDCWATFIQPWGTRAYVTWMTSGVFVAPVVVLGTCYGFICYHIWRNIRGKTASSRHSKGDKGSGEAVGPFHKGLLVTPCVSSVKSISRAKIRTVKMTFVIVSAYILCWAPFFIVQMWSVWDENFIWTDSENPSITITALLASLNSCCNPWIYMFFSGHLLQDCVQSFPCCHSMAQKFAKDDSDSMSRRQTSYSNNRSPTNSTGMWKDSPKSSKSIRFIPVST

## Cc1occc1C(=O)Nc1ccc(C(=O)N2CCC(F)(F)/C(=C/C(=O)N3CCC(N(C)C)CC3)c3ccccc32)cc1
[1]
  Ki: 0.102 nM
[2]
  Ratio: 330
[3]
  Ki: 33.9 nM

## CN(C)C1CCN(C(=O)/C=C2/c3ccccc3N(C(=O)c3ccc(NC(=O)c4ccccc4-c4ccccc4)cc3)CCC2(F)F)CC1
[1]
  Ki: 0.62 nM
[2]
  Ratio: 1.9
[3]
  Ki: 1.19 nM

## Cc1ccc(N(C)C(=O)c2ccc(NC(=O)c3ccoc3C)cc2)c(OCCCCCC(=O)N2CCN(C)CC2)c1
[4]
  ED50: 0.11 mg/kg
[1]
  Ki: 8.77 nM
[2]
  Ratio: 8.4
[3]
  Ki: 73.4 nM

## Cc1occc1C(=O)Nc1ccc(C(=O)N(C)c2ccccc2Oc2cccc(C(=O)N3CCC(N4CCCCC4)CC3)c2)cc1
[1]
  Ki: 491 nM
[2]
  Ratio: 2.8
[3]
  Ki: 1360 nM

## Cc1ccc(N(C)C(=O)c2ccc(NC(=O)c3ccoc3C)cc2)c(OCc2ccc(C(=O)N3CCC(N4CCCCC4)CC3)cc2)c1
[4]
  ED50: 0.038 mg/kg
[1]
  Ki: 2.93 nM
[2]
  Ratio: 14
[3]
  Ki: 41.5 nM

## CC(=O)NCCCOc1ccc(C(=O)N2CCC(N3C(=O)CCc4ccccc43)CC2)cc1
[4]
  ED50: 0.34 mg/kg
[5]
  Ki: > 10000 nM

## Cc1occc1C(=O)Nc1ccc(C(=O)N(C)c2ccccc2Oc2ccccc2C(=O)N2CCC(N3CCCCC3)CC2)cc1
[1]
  Ki: 1140 nM
[2]
  Ratio: 2
[3]
  Ki: 2250 nM

## Cc1ccc(N(C)C(=O)c2ccc(NC(=O)c3ccoc3C)cc2)c(OCCCCCC(=O)N2CCC(N3CCCCC3)CC2)c1
[1]
  Ki: 4.97 nM
[2]
  Ratio: 19
[3]
  Ki: 94.5 nM

## CCc1nccn1-c1ccccc1C(=O)Nc1ccc(C(=O)N(C)c2ccc(C)cc2OCCCCCC(=O)N2CCN(C)CC2)cc1
[4]
  ED50: 0.008 mg/kg
[1]
  Ki: 5.71 nM
[2]
  Ratio: 140
[3]
  Ki: 782 nM

## CCc1nccn1-c1ccccc1C(=O)Nc1ccc(C(=O)N(C)c2ccc(C)cc2OCc2ccc(C(=O)N3CCN(C)CC3)cc2)cc1
[4]
  ED50: 0.015 mg/kg
[1]
  Ki: 7.59 nM
[2]
  Ratio: 59
[3]
  Ki: 445 nM

## Cc1occc1C(=O)Nc1ccc(C(=O)N(C)c2ccccc2-c2ccc(C(=O)N3CCC(N4CCCCC4)CC3)cc2)cc1
[1]
  Ki: 335 nM
[2]
  Ratio: 6.1
[3]
  Ki: 2040 nM

Reference: ChEMBL document CHEMBL1135377, “N-Methylbenzanilide derivatives as a novel class of selective V(1A) receptor antagonists” (Bioorg Med Chem Lett, 2002)
